According to ChEMBL document CHEMBL1125860 (J Med Chem, 1991):
pIC50: −log10 of the molar value. Each block holds one compound with its values, some of them ahead of it. The source made the active and inactive calls. No cut-off for these calls is given here.

Tests used:
[1] = organism: Rattus norvegicus; test: In vitro inhibition of sorbitol accumulation was measured in rat sciatic nerves incubated in the presence of 50 mM glucose at 10e-6 M concentration; format: functional, Sciatic nerve
[2] = molecular target: Aldo-keto reductase family 1 member B1 (Bos taurus) (UniProt P16116); test: In vitro % decrease of aldose reductase measured in isolated partially purified bovine lens preparations at 10e-7 M concentration
[3] = test system: Rattus norvegicus; test: In vivo inhibition of galactitol accumulation in diaphragm of rat at 51 mg/kg/day; format: functional
[4] = test system: Rattus norvegicus; test: In vivo inhibition of galactitol accumulation in sciatic nerves of rat at 51 mg/kg/day; format: functional; conditions: Sciatic nerve
[5] = organism: Rattus norvegicus; test: In vitro inhibition of sorbitol accumulation was measured in rat sciatic nerves incubated in the presence of 50 mM glucose at 10e-5 M concentration; format: functional, Sciatic nerve
[6] = test system: Rattus norvegicus; test: In vivo inhibition of galactitol accumulation in diaphragm of rat at 11 mg/kg/day; format: functional
[7] = test system: Rattus norvegicus; test: In vivo inhibition of galactitol accumulation in sciatic nerves of rat at 123 mg/kg/day; format: functional; conditions: Sciatic nerve
[8] = test system: Rattus norvegicus; test: In vivo inhibition of galactitol accumulation in sciatic nerves of rat at 11 mg/kg/day; Not significant; format: functional, organism-based; conditions: Sciatic nerve
[9] = test system: Rattus norvegicus; test: In vivo inhibition of galactitol accumulation in diaphragm of rat at 123 mg/kg/day; format: functional
[10] = test system: Rattus norvegicus; test: In vivo inhibition of galactitol accumulation in sciatic nerves of rat at 5 mg/kg/day; format: functional; conditions: Sciatic nerve
[11] = test system: Rattus norvegicus; test: In vivo inhibition of galactitol accumulation in sciatic nerves of galactose fed rat.; format: functional; conditions: Sciatic nerve
[12] = organism: Rattus norvegicus; test: Inhibition of galactitol accumulation in rat RBC incubated in presence of 50 mM glucose; format: functional, organism-based
[13] = test system: Rattus norvegicus; test: In vivo inhibition of galactitol accumulation in the RBC of galactose fed rat.; format: functional
[14] = organism: Rattus norvegicus; test: Inhibition of galactitol accumulation in sciatic nerves of rat incubated in presence of 50 mM glucose.; format: functional, organism-based; conditions: Sciatic nerve
[15] = test system: Rattus norvegicus; test: In vivo inhibition of galactitol accumulation in diaphragm of rat at 5 mg/kg/day; format: functional
[16] = organism: Rattus norvegicus; test: Inhibition of galactitol accumulation in rat lens incubated in presence of 50 mM glucose; format: functional, organism-based; conditions: Lens of camera-type eye
[17] = test system: Rattus norvegicus; test: In vivo inhibition of galactitol accumulation in diaphragm of rat at 10 mg/kg/day; format: functional
[18] = molecular target: Aldo-keto reductase family 1 member B1 (Bos taurus) (UniProt P16116); test: Inhibition of aldose reductase activity was measured on partially purified bovine lens preparations incubated in presence of 50 mM glucose; Not active
[19] = test system: Rattus norvegicus; test: In vivo inhibition of galactitol accumulation in sciatic nerves of rat at 10 mg/kg/day; format: functional; conditions: Sciatic nerve
[20] = organism: Rattus norvegicus; test: Inhibition of aldose reductase activity was measured by measuring sorbitor accumulation in the sciatic nerves of STZ diabetic rat.; format: functional; conditions: Sciatic nerve
[21] = test system: Rattus norvegicus; test: In vivo inhibition of galactitol accumulation in sciatic nerves of rat at 97 mg/kg/day; format: functional; conditions: Sciatic nerve
[22] = test system: Rattus norvegicus; test: In vivo inhibition of galactitol accumulation in diaphragm of rat at 97 mg/kg/day; format: functional
[23] = test system: Rattus norvegicus; test: In vivo inhibition of galactitol accumulation in diaphragm of rat at 144 mg/kg; format: functional
[24] = test system: Rattus norvegicus; test: In vivo inhibition of galactitol accumulation in sciatic nerves of rat at 44 mg/kg/day; Not significant; format: functional, organism-based; conditions: Sciatic nerve
[25] = test system: Rattus norvegicus; test: In vivo inhibition of galactitol accumulation in diaphragm of rat at 132 mg/kg/day; format: functional
[26] = test system: Rattus norvegicus; test: In vivo inhibition of galactitol accumulation in sciatic nerves of rat at 132 mg/kg/day; format: functional; conditions: Sciatic nerve
[27] = test system: Rattus norvegicus; test: % reduction of aldose reductase inhibition was evaluated by measuring galactitol accumulation in sciatic nerves of rat at 32 mg/kg/day; format: functional; conditions: Sciatic nerve
[28] = test system: Rattus norvegicus; test: In vivo inhibition of galactitol accumulation in sciatic nerves of rat at 11 mg/kg/day; format: functional; conditions: Sciatic nerve
[29] = test system: Rattus norvegicus; test: In vivo inhibition of galactitol accumulation in sciatic nerves of rat at 32 mg/kg/day; format: functional; conditions: Sciatic nerve
[30] = molecular target: Aldo-keto reductase family 1 member B1 (Bos taurus) (UniProt P16116); test: In vitro % decrease of aldose reductase was measured in isolated partially purified bovine lens preparations at 10e-7 M concentration; Not active
[31] = test system: Rattus norvegicus; test: In vivo inhibition of galactitol accumulation in diaphragm of rat at 52 mg/kg/day; format: functional
[32] = test system: Rattus norvegicus; test: In vivo inhibition of galactitol accumulation in sciatic nerves of rat at 52 mg/kg/dayC; format: functional, organism-based; conditions: Sciatic nerve
[33] = test system: Rattus norvegicus; test: In vivo inhibition of galactitol accumulation in sciatic nerves of rat at 16 mg/kg/day; Not significant; format: functional, organism-based; conditions: Sciatic nerve
[34] = test system: Rattus norvegicus; test: In vivo inhibition of galactitol accumulation in diaphragm of rat at 16 mg/kg/day; format: functional
[35] = test system: Rattus norvegicus; test: In vivo inhibition of galactitol accumulation in diaphragm of rat at 49 mg/kg; format: functional
[36] = test system: Rattus norvegicus; test: In vivo inhibition of galactitol accumulation in sciatic nerves of rat at 26 mg/kg/day; format: functional; conditions: Sciatic nerve
[37] = test system: Rattus norvegicus; test: In vivo inhibition of galactitol accumulation in sciatic nerves of rat at 49 mg/kg/day; format: functional; conditions: Sciatic nerve
[38] = test system: Rattus norvegicus; test: In vivo inhibition of galactitol accumulation in sciatic nerves of rat at 75 mg/kg/day; format: functional; conditions: Sciatic nerve
[39] = test system: Rattus norvegicus; test: In vivo inhibition of galactitol accumulation in diaphragm of rat at 25 mg/kg/day; […]; format: functional, organism-based
[40] = test system: Rattus norvegicus; test: In vivo inhibition of galactitol accumulation in sciatic nerves of rat at 53 mg/kg/day; format: functional; conditions: Sciatic nerve
[41] = test system: Rattus norvegicus; test: In vivo inhibition of galactitol accumulation in diaphragm of rat at 53 mg/kg/day; format: functional
[42] = test system: Rattus norvegicus; test: In vivo inhibition of galactitol accumulation in diaphragm of rat at 75 mg/kg/day; format: functional
[43] = test system: Rattus norvegicus; test: In vivo inhibition of galactitol accumulation in sciatic nerves of rat at 25 mg/kg/day; format: functional; conditions: Sciatic nerve

inhibition [2]: 77%
SMILES: COC(=O)N(CC(=O)O)C(=O)c1c(Br)ccc2c(C(F)(F)F)c(OC)ccc12
Inhibition [1]: 29%
inhibition in vivo at 51 mg/kg/day [3]: 62%
inhibition in vivo at 51 mg/kg/day [4]: 69%
Inhibition [5]: 68%

inhibition [2]: 85%
SMILES: COc1ccc2c(C(=S)N(C)CC(=O)O)cc(C)cc2c1Br
Inhibition [1]: 43%
inhibition in vivo at 11 mg/kg/day [6]: 48%
inhibition in vivo at 123 mg/kg/day [7]: 86%
inhibition [8]: inactive
Inhibition [5]: 86%
inhibition in vivo at 123 mg/kg/day [9]: 91%

pIC50 [12]: 4.92
pIC50 [14]: 5.51
pIC50 [16]: < 5.00
inhibition [18]: inactive
SMILES: COc1ccc2c(C(=O)N(C)CC(N)=O)c(F)ccc2c1C(F)(F)F
Inhibition [1]: 17%
inhibition in vivo at 5 mg/kg/day [10]: 39%
ED50 [11]: 5.5 mg/kg
ED50 [13]: 8.5 mg/kg
inhibition in vivo at 5 mg/kg/day [15]: 32%
Inhibition [5]: 80%
inhibition in vivo at 10 mg/kg/day [17]: 41%
inhibition in vivo at 10 mg/kg/day [19]: 59%
ED50 [20]: < 3 mg/kg

inhibition [2]: 63%
SMILES: COc1ccc2c(C(=O)N(C)CC(=O)O)c(Br)ccc2c1C(F)(F)F
Inhibition [1]: 37%
inhibition in vivo at 97 mg/kg/day [21]: 44%
inhibition in vivo at 97 mg/kg/day [22]: 84%
Inhibition [5]: 67%

inhibition [2]: 74%
SMILES: COc1ccc2c(C(=O)N(C)CC(=O)O)cc(Cc3ccccc3)cc2c1Br
inhibition in vivo at 144 mg/kg [23]: 24%
Inhibition [1]: 44%
Inhibition [5]: 72%
inhibition [24]: inactive

inhibition [2]: 83%
SMILES: COc1ccc2c(C(=O)N(C)CC(=O)O)cc(-c3ccccc3)cc2c1Br
Inhibition [1]: 28%
inhibition in vivo at 132 mg/kg/day [25]: 33%
Inhibition [5]: 71%
inhibition in vivo at 132 mg/kg/day [26]: 24%

inhibition [30]: inactive
SMILES: CCN(CC)C(=O)COC(=O)CN(C(=O)OC)C(=O)c1c(F)ccc2c(C(F)(F)F)c(OC)ccc12
inhibition in vivo at 32 mg/kg/day [27]: 75%
inhibition in vivo at 11 mg/kg/day [28]: 39%
inhibition in vivo at 11 mg/kg/day [6]: 36%
inhibition in vivo at 32 mg/kg/day [29]: 75%

inhibition [2]: 80%
SMILES: COc1ccc2c(C(=O)N(C)CC(=O)O)ccc(Cc3ccccc3)c2c1Br
inhibition in vivo at 52 mg/kg/day [31]: 34%
inhibition [32]: inactive

inhibition [30]: inactive
SMILES: COC(=O)N(CC(N)=O)C(=O)c1c(F)ccc2c(C(F)(F)F)c(OC)ccc12
Inhibition [1]: 4%
inhibition in vivo at 11 mg/kg/day [6]: 28%
inhibition [8]: inactive
inhibition [33]: inactive
Inhibition [5]: 34%
inhibition in vivo at 16 mg/kg/day [34]: 33%

inhibition [2]: 63%
SMILES: COc1ccc2c(C(=O)N(C)CC(=O)O)c(Cl)ccc2c1C(F)(F)F
Inhibition [1]: 39%
inhibition in vivo at 49 mg/kg [35]: 80%
inhibition in vivo at 26 mg/kg/day [36]: 43%
Inhibition [5]: 67%
inhibition in vivo at 49 mg/kg/day [37]: 83%

SMILES: COc1ccc2c(C(=O)N(C)CC(=O)O)cccc2c1C(F)(F)F
inhibition in vivo at 75 mg/kg/day [38]: 56%
inhibition [39]: inactive
Inhibition [1]: 27%
inhibition in vivo at 53 mg/kg/day [40]: 93%
Inhibition [5]: 74%
inhibition in vivo at 53 mg/kg/day [41]: 94%
inhibition in vivo at 75 mg/kg/day [42]: 27%
inhibition in vivo at 25 mg/kg/day [43]: 33%
